Each block holds one compound with its values, some of them ahead of it. Active and inactive are the calls of the source.
What was measured:
[1] = biological target: T1, G-protein coupled receptor 35 (Homo sapiens, UniProt Q9HC97); experiment: SAR analysis of Agonists of the GPR35 Receptor using an Image-Based Assay - Set 4. [Related pubchem assays (depositor defined):AID2013, AID2026]; format: functional
[2] = biological target: T2, Probable nicotinate-nucleotide adenylyltransferase (Staphylococcus aureus (strain N315), UniProt P65502); format: functional, Staphylococcus aureus subsp. aureus N315; settings: read-out: IC50_Mean;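 as to IC50 Mean: confirmatory dose-response retesting of NadD inhibitor hits first found in an ultra-high-throughput screen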
[3] = biological target: G-protein coupled receptor 55 (Homo sapiens, UniProt Q9Y2T6); experiment: SAR Analysis of Selective Antagonists of GPR55 using an Image-Based Assay - Set 4. [Related pubchem assays (depositor defined):AID2013, AID2026]; format: functional;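 also: antagonism of response to 5 µM lysophosphatidylinositol agonist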
G-protein coupled receptor 55, sequence (Q9Y2T6 whole entry): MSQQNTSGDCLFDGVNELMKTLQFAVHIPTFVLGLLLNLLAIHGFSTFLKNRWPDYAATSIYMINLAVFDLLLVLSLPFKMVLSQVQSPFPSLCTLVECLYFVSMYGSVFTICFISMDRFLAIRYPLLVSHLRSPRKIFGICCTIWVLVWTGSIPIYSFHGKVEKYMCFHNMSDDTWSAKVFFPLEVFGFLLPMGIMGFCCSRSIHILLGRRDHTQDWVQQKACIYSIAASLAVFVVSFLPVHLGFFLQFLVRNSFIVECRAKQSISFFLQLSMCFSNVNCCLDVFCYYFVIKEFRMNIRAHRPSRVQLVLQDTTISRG

Cannabinoid receptor 2 [4] = biological target: T3, Cannabinoid receptor 2 (Homo sapiens, UniProt P34972); experiment: SAR analysis of agonists of the Cannabinoid Receptor 2 using an Image-Based Assay - Set 3. [Related pubchem assays (depositor defined):AID2013, AID2026]; format: functional
T3 sequence (P34972 whole entry): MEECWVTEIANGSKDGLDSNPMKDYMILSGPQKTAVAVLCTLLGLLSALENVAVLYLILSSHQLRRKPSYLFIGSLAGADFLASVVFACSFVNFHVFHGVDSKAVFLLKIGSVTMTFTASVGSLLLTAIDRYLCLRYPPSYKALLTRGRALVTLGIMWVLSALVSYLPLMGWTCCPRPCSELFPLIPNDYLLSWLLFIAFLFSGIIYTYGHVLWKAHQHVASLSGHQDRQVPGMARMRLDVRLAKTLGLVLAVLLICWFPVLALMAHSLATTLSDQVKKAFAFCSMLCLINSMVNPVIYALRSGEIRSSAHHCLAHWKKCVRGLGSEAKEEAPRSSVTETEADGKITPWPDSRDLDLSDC

Cannabinoid receptor 1 [5] = biological target: T4, Cannabinoid receptor 1 (Homo sapiens, UniProt P21554); experiment: SAR analysis of antagonists of the Cannabinoid Receptor 1 using an Image-Based Assay - Set 4. [Related pubchem assays (depositor defined):AID2013, AID2026]; format: functional
T4 sequence (P21554 whole entry): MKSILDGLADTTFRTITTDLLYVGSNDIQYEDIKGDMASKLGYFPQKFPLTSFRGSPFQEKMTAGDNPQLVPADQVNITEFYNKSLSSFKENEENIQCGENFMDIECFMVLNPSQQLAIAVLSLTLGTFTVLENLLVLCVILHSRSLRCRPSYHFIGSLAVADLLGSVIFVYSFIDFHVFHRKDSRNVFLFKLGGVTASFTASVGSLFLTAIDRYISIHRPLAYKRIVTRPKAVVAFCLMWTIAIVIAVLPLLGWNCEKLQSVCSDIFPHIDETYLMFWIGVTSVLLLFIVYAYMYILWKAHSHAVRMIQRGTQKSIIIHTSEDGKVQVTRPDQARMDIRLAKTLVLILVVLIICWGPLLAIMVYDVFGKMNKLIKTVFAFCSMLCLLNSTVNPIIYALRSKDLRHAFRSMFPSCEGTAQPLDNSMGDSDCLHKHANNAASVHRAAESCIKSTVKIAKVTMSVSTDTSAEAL

[6] = biological target: T2, Probable nicotinate-nucleotide adenylyltransferase; format: functional, Staphylococcus aureus subsp. aureus N315
Cannabinoid receptor 2 [7] = biological target: T3, Cannabinoid receptor 2; experiment: SAR analysis of antagonists of the Cannabinoid Receptor 2 using an Image-Based Assay - Set 3. [Related pubchem assays (depositor defined):AID2013, AID2026]; format: functional
[8] = biological target: T1, G-protein coupled receptor 35; experiment: SAR analysis of Antagonists of the GPR35 Receptor using an Image-Based Assay - Set 6. [Related pubchem assays (depositor defined):AID2013, AID2026]; format: functional
[9] = HEp-2 cell cytotoxicity, dose response, cytotoxicity control for RSV inhibitor project, HTS (AID 2410); format: functional; settings: human respiratory syncytial virus
Cannabinoid receptor 1 [10] = biological target: T4, Cannabinoid receptor 1; experiment: SAR analysis of agonists of the Cannabinoid Receptor 1 using an Image-Based Assay - Set 4. [Related pubchem assays (depositor defined):AID2013, AID2026]; format: functional
[11] = biological target: T5, Intestinal-type alkaline phosphatase (Homo sapiens, UniProt P09923); experiment: human IAP activators, dose response, biochemical, luminescent, uHTS hits, set 2 (AID 488817); format: functional;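 also: potency of activators that raise enzyme activity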
T5 sequence (P09923 whole entry): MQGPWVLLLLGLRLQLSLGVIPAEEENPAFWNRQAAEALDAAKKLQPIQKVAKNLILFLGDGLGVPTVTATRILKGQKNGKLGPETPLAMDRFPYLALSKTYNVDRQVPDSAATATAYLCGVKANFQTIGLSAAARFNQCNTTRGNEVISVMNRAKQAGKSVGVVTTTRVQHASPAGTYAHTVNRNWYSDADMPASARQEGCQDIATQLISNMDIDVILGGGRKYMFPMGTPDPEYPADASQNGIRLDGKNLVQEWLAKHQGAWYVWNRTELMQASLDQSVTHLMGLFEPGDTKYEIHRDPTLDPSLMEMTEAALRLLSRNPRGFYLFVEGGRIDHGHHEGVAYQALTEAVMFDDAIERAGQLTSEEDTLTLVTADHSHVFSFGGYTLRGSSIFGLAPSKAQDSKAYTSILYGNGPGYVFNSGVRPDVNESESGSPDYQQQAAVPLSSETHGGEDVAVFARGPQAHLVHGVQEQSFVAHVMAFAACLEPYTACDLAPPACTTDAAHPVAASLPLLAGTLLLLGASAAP

[12] = biological target: Intestinal-type alkaline phosphatase (Mus musculus, UniProt P24822); experiment: PubChem AID 488875; format: functional
Intestinal-type alkaline phosphatase (Mus musculus, UniProt P24822), sequence (P24822 whole entry): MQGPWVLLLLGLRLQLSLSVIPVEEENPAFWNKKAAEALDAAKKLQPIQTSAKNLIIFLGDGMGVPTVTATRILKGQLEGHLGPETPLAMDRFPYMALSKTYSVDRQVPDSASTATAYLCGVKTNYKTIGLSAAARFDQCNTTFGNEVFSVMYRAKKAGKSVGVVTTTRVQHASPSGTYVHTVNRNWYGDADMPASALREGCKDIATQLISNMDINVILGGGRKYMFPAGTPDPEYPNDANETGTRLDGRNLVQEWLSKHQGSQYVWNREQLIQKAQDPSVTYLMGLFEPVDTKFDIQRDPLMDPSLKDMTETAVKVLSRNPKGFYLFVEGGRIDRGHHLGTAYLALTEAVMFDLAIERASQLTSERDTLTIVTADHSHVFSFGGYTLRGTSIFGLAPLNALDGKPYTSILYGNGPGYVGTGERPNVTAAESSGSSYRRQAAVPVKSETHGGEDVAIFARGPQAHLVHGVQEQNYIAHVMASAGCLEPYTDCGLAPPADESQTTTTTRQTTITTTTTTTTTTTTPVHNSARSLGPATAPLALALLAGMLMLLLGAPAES

[13] = biological target: T5, Intestinal-type alkaline phosphatase; experiment: human intestinal alkaline phosphatase activators, dose response, biochemical, luminescence, uHTS hits (AID 463120); format: functional
[14] = biological target: T6, Alkaline phosphatase, tissue-nonspecific isozyme (Homo sapiens, UniProt P05186); experiment: TNAP enzyme activators, dose response, selectivity assay for human IAP activator project, biochemical, TNAP isozyme, human IAP uHTS hits (AID 488886); format: functional;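 also: potency of compounds raising TNAP activity as a selectivity check on IAP activators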
T6 sequence (P05186 whole entry): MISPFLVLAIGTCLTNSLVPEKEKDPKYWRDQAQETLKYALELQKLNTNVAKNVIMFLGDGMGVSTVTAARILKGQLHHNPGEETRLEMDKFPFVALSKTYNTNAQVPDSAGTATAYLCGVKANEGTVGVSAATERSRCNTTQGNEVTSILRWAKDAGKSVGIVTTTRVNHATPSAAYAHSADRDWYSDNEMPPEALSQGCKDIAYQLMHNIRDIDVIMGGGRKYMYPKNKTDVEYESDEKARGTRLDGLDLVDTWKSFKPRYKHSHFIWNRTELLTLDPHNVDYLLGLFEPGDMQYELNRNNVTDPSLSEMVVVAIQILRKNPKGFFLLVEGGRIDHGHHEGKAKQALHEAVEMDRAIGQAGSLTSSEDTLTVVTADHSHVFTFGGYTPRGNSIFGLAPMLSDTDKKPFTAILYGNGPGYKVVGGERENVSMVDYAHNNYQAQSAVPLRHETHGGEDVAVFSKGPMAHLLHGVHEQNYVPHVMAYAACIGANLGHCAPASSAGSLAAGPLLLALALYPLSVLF

[15] = biological target: T7, Tyrosine-protein phosphatase non-receptor type 22 (Homo sapiens, UniProt Q9Y2R2); format: functional
T7 sequence (Q9Y2R2 whole entry): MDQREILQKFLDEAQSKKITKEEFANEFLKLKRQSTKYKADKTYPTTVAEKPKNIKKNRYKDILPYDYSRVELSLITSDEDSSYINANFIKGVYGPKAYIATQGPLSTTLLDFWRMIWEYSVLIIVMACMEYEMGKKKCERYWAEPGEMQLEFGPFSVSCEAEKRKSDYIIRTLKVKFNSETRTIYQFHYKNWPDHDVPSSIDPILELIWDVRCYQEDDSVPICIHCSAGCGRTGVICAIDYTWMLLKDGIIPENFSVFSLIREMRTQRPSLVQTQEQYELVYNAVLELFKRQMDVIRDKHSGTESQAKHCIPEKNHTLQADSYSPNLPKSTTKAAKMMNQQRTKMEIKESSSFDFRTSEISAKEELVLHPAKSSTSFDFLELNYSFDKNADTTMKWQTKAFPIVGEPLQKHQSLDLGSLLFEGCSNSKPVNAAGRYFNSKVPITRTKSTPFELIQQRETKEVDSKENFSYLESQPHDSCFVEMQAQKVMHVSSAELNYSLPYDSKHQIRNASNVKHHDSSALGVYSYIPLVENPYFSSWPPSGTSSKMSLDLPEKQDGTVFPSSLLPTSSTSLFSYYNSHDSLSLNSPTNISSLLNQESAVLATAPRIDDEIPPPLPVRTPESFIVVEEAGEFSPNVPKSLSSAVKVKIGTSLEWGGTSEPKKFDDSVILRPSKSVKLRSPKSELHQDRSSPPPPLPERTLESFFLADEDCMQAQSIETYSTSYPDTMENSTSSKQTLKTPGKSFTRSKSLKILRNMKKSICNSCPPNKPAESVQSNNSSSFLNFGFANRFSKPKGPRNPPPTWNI

[16] = biological target: T7, Tyrosine-protein phosphatase non-receptor type 22; format: functional; remark: listed apart in the source
[17] = biological target: T8, Tyrosine-protein phosphatase non-receptor type 7 (Homo sapiens, UniProt P35236); format: functional
T8 sequence (P35236 whole entry): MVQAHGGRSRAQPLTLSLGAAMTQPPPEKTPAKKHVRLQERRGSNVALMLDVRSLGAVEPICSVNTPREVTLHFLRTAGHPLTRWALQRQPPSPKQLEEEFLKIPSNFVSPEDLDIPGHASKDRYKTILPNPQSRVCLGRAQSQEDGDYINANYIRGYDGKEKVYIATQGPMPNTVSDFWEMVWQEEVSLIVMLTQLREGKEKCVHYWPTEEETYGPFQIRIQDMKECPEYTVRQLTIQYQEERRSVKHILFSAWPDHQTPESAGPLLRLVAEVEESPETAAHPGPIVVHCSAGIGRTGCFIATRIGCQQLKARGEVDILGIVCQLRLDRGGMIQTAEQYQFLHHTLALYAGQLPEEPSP

T1 sequence (Q9HC97 whole entry): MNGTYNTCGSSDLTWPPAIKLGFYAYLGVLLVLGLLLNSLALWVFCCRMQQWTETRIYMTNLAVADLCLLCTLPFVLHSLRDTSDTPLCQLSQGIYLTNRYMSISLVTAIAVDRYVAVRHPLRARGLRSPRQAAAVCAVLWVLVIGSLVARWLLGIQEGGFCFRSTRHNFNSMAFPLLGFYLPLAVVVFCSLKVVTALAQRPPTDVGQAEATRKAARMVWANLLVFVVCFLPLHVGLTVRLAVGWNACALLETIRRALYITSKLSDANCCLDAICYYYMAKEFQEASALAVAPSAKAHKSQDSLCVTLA

EC50 [1]: > 32 µM (inactive)
IC50 [2]: 21.6 µM (active)
IC50 [3]: 7.7 µM (active)
EC50 (Cannabinoid receptor 2 [4]): > 32 µM (inactive)
IC50 (Cannabinoid receptor 1 [5]): 10.2 µM (inactive)
IC50 [6]: 5.29 µM (active)
IC50 (Cannabinoid receptor 2 [7]): > 32 µM (inactive)
IC50 [8]: > 32 µM (inactive)
EC50 (Cannabinoid receptor 1 [10]): > 32 µM (inactive)
Compound: Cc1ccc(-c2cc(C(=O)Nc3ccc(S(=O)(=O)Nc4nccs4)cc3)c3ccccc3n2)c(C)c1
CC50 [9]: 24.3 µM (active)

EC50 [11]: 44.3 µM (active)
EC50 [12]: 22.4 µM (active)
EC50 [13]: 39.8 µM (active)
EC50 [14]: 38.8 µM (active)
Compound: CC(N=C(S)NC1CCC(C(C)(C)C)CC1)c1ccccc1 (configuration not stated)

IC50 [15]: > 79.4 µM (inactive)
IC50 [16]: > 79.4 µM (inactive)
IC50 [17]: > 79.4 µM (inactive)
Compound: COc1ccc(C2CC(c3ccc(C)cc3)=NN2C(=O)CCC(=O)O)cc1OC (configuration not stated)

From ChEMBL document CHEMBL1201862, “PubChem BioAssay data set” (2004)
